Measurements from patent US11565094B2, “Delivery devices” (THE METHODIST HOSPITAL SYSTEM, priority 2017, dated 2023).

How the values were obtained:
[1] = VEGF 0.5 and 5 μg/mL in PLM, subcutaneous device
Procedure: The encapsulation systems were evaluated in nude mice (Nu/Nu, female, 8-10 week old), after receiving approval by the Institutional Animal Care and Use Committee of Houston Methodist Research Institute. Surface treated and sterilized devices, loaded with platelet-lysate matrix (PLM) enriched with VEGF at two different concentrations (0.5 and 5 μg/mL), were implanted subcutaneously in the mice dorsum (n=12 per group). At 1, 2, and 4 weeks post implantation, 4 mice per group were euthanized and the graft explanted for the histological assessment of vascularization and innervation. The implant and surrounding tissues were harvested and processed for histopathology evaluation of tissue response to the implanted device. CD31 antibody (Abcam, ab28364) and a pan-axonal antibody (Cambridge Bioscience, SMI-312R-100) were used to assess vascularization and innervation, respectively.
In vivo vascularization and innervation of oxygen treated devices after subcutaneous implantation in nude mice was then investigated. […] To stimulate neovascularization and to support the islet viability and function for a period of time after transplantation, devices loaded with biological gels with different VEGF concentrations was used. […] Tissue samples were taken from the side of the device closer to the skin, representing the subcutaneous environment.

[2] = parameters: species or system C57Bl6 mice; conditions: mouse, in vivo
Text: Utilizing the percutaneous trocar delivery approach, PEEK nano-channel implants loaded with Magnevist were inserted intratumorally into the upper thigh of C57Bl6 mice with induced melanoma. The implants were visualized on T1-weighted images as an area of hypointensity corresponding to the PEEK body and surrounded by a hyperintense halo of contrast agent (FIG. 7B). Implant location could also be identified on T2-weighted images that, in addition, highlighted tumor heterogeneity (FIG. 7A).
An unexpected outcome was the implant's loaded concentration being too high for visualization, as the relaxation time was faster than the scanner could detect. This is further evidenced by the sharp onset of observable enhancement a few mm from the implant's exterior. The narrow band of this observable enhancement, beginning 2-5 mm from the implant's exterior and approximately 1 mm thick, provides evidence of rapid clearance of the contrast agent from the tumor tissue. FIG. 7C serves as an idealized graphical representation of the relationship between the normalized concentration and the visible contrast zone.

distance from implant's exterior where observable enhancement begins [2]	thickness of band of observable enhancement [2]	Compound	number of vessels stained by CD31 versus VEGF concentration [1]
		vascular endothelial growth factor [VEGF]	positive trend
2-5 mm	approximately 1 mm	CNC[C@H](O)[C@@H](O)[C@H](O)[C@H](O)CO.CNC[C@H](O)[C@@H](O)[C@H](O)[C@H](O)CO.O=C([O-])CN(CCN(CC(=O)[O-])CC(=O)O)CCN(CC(=O)[O-])CC(=O)O.[Gd+3] [Magnevist]	
